Here are results for two molecules from US20230330089A1, “COVID PREVENTION AND TREATMENT USING AN INTEGRIN INHIBITOR” (priority 2022, published 2023).

The conditions of series [1]: Phase I, solid tumors; cited from earlier work.
A further series deals with TGF-β signaling. The following applies: breast cancer cells; cited from earlier work.
In series [2] the test system is VsVg positive control lentivirus. The class given is cell-based. The following applies: HSAE cells pre-treated with 20 nM to 1 μM for 2 hours; 24 hour infection.
Another series has as its system ACE2. The following applies: cited from earlier work.
The next series has as its system SARS-CoV-2 pseudovirus. Conditions: cited from earlier work.

As for `COc1ccc(S(=O)(=O)N[C@@H](CNc2nc(C)nc(N3CCC(c4ccc5c(n4)NCCC5)CC3)c2C)C(=O)O)cc1` [GLPG-0187], in series [1], the “toxicity profile in patients” value was “favorable toxicity profile”. Moreover, the “effect on TGF-β signaling” value in the series with TGF-β signaling is recorded as “decreased TGF-β signaling”. Moreover, the “effect on VsVg positive control infection” value in series [2] is “no effect of the inhibitor was observed”.
On to `CNS(=O)(=O)Nc1nccc(Cc2c(C)c3ccc(Oc4ncccn4)cc3oc2=O)c1F` [VS-6766], for which the “cellular expression of ACE2” value with ACE2 was “reduce cellular expression of ACE2”. Further, in the series on SARS-CoV-2 pseudovirus, the “pseudovirus infection of multiple human cell types” value is on record as “inhibit pseudovirus infection”.
